The term pIC50 denotes the IC50 on a negative log10 scale, so that one unit is a factor of ten. A lower pIC50 goes with a large IC50.

pIC50: −log10 of the molar value. Structures can show the parent of a compound that is named as a salt.

The target in the experiment is GST tagged IRAK4 (Homo sapiens (Human), UniProt Q9NWZ3). As to the kind of experiment: IRAK4 Kinase Assay (IMAP fluorescence polarization). Type of experiment: biochemical. The following applies: 0.5 nM GST tagged IRAK4, 100 μM ATP, 30 minutes at 25° C. As to the method: The kinase activity of IRAK4 is determined by its ability to catalyze the phosphorylation of a fluorescent polypeptide substrate. The extent of phosphorylation is measured using the IMAP technology (Molecular Devices) where the phosphorylated fluorescent substrate binds to the large M(III)-based nanoparticles which reduces the rotational speed of the substrate and thus increases its fluorescent polarization (FP).
GST tagged IRAK4, sequence (Q9NWZ3 whole entry): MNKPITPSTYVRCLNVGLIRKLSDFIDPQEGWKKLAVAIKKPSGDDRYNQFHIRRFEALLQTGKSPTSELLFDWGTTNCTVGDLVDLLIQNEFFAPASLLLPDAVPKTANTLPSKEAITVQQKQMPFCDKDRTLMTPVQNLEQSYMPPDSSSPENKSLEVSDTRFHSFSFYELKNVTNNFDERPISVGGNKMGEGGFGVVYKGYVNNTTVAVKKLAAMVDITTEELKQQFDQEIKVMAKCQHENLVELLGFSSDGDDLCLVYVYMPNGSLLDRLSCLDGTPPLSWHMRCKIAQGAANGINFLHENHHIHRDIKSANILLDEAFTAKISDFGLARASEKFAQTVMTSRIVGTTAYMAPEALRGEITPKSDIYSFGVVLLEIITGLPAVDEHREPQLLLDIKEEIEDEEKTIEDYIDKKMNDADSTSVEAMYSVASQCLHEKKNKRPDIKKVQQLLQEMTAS
20 μL reaction mixture contains 10 mM TriHCl, pH 7.2, 0.5 nM GST tagged IRAK4 (SignalChem), 100 nM fluorescent peptide substrate (RP7030, Molecular Devices), 100 μM ATP, 1 mM DDT, 1 mM MgCl2, and 0.01% Tween 20. The reaction is initiated by the addition of ATP. After incubation for 30 minutes at 25° C., 60 μL of Progressive IMAP Reagent (Molecular Devices) is added to stop the reaction. Change in RP7030's FP is determined by a FP reader (Analyst HT, LJL BioSystems).
A general note: Fluorescence polarisation rises when a labelled molecule tumbles more slowly, as on binding a larger partner.
In turn, `O=C(Nc1cscc1C(F)F)c1ccc2cnc(N3C[C@H]4CC[C@@H]3CN4)nn12` (single isomer, unassigned) [Example 81, 2-[(1S,4S)- or (1R,4R)-2,5-diazabicyclo[2.2.2]oct-2-yl]-N-[4-(difluoromethyl)thiophen-3-yl]pyrrolo[2,1-f][1,2,4]triazine-7-carboxamide trifluoroacetate] gave a pIC50 of 7.20.

As for `O=C(Nc1ccccc1Br)c1ccc2cnc(N3C[C@@H]4CC[C@H]3CN4)nn12` (single isomer, unassigned) [Example 84, N-(2-bromophenyl)-2-[(1S,4S)- or (1R,4R)-2,5-diazabicyclo[2.2.2]oct-2-yl]pyrrolo[2,1-f][1,2,4]triazine-7-carboxamide trifluoroacetate], the pIC50 was 5.11.

In turn, `O=C(Nc1ccsc1C(F)(F)F)c1ccc2cnc(N3C[C@@H]4CC[C@H]3CN4)nn12` (single isomer, unassigned) [Example 86, 2-[(1S,4S)- or (1R,4R)-2,5-diazabicyclo[2.2.2]oct-2-yl]-N-[2-(trifluoromethyl)thiophen-3-yl]pyrrolo[2,1-f][1,2,4]triazine-7-carboxamide trifluoroacetate] had a negative-log IC50 (pIC50) of 5.64.

Compound `O=C(Nc1ccsc1C(F)(F)F)c1ccc2cnc(N3C[C@H]4CC[C@@H]3CN4)nn12` (single isomer, unassigned) [Example 87, 2-[(1S,4S)- or (1R,4R)-2,5-diazabicyclo[2.2.2]oct-2-yl]-N-[2-(trifluoromethyl)thiophen-3-yl]pyrrolo[2,1-f][1,2,4]triazine-7-carboxamide trifluoroacetate] showed a negative logarithm of the IC50 (pIC50) of 5.84.

In the case of `Cn1cc(NC(=O)c2ccc3cnc(N[C@@H]4CCCCNC4)nn23)c(C(F)F)n1` (single isomer, unassigned) [Example 90, 2-[(3S)- or (3R)-azepan-3-ylamino]-N-[3-(difluoromethyl)-1-methyl-1H-pyrazol-4-yl]pyrrolo[2,1-f][1,2,4]triazine-7-carboxamide trifluoroacetate], the negative logarithm of the IC50 (pIC50) was 9.15.

With `Cn1cc(NC(=O)c2ccc3cnc(N[C@H]4CCCCNC4)nn23)c(C(F)F)n1` (single isomer, unassigned) [Example 91, 2-[(3S)- or (3R)-azepan-3-ylamino]-N-[3-(difluoromethyl)-1-methyl-1H-pyrazol-4-yl]pyrrolo[2,1-f][1,2,4]triazine-7-carboxamide trifluoroacetate], the pIC50 was 9.00.

For `Cn1cc(NC(=O)c2ccc3cnc(N4C[C@@H]5CN[C@@H](C5)C4)nn23)c(C(F)(F)F)n1` (single isomer, unassigned) [Example 100, 2-[(1S,5S)- or (1R,5R)-3,6-diazabicyclo[3.2.1]oct-3-yl]-N-[1-methyl-3-(trifluoromethyl)-1H-pyrazol-4-yl]pyrrolo[2,1-f][1,2,4]triazine-7-carboxamide], the pIC50 is 7.19.

Consider `Cn1cc(NC(=O)c2ccc3cnc(N4C[C@H]5CN[C@H](C5)C4)nn23)c(C(F)(F)F)n1` (single isomer, unassigned) [Example 101, 2-[(1S,5S)- or (1R,5R)-3,6-diazabicyclo[3.2.1]oct-3-yl]-N-[1-methyl-3-(trifluoromethyl)-1H-pyrazol-4-yl]pyrrolo[2,1-f][1,2,4]triazine-7-carboxamide], for which the negative logarithm of the IC50 (pIC50) was 6.56.

Take `Cn1cc(NC(=O)c2ccc3cnc(N4C[C@@H]5CN[C@@H](C5)C4)nn23)c(C(F)F)n1` (single isomer, unassigned) [Example 103, 2-[(1S,5S)- or (1R,5R)-3,6-diazabicyclo[3.2.1]oct-3-yl]-N-[3-(difluoromethyl)-1-methyl-1H-pyrazol-4-yl]pyrrolo[2,1-f][1,2,4]triazine-7-carboxamide]: the pIC50 is 8.00.

Take `Cn1cc(NC(=O)c2ccc3cnc(N4C[C@H]5CN[C@H](C5)C4)nn23)c(C(F)F)n1` (single isomer, unassigned) [Example 104, 2-[(1S,5S)- or (1R,5R)-3,6-diazabicyclo[3.2.1]oct-3-yl]-N-[3-(difluoromethyl)-1-methyl-1H-pyrazol-4-yl]pyrrolo[2,1-f][1,2,4]triazine-7-carboxamide]: the negative-log IC50 (pIC50) is 7.55.

The compound `O=C(Nc1cscc1Cl)c1ccc2cnc(N3C[C@@H]4CC[C@H]3CN4)nn12` (single isomer, unassigned) [Example 107, N-(4-chlorothiophen-3-yl)-2-[(1S,4S)- or (1R,4R)-2,5-diazabicyclo[2.2.2]oct-2-yl]pyrrolo[2,1-f][1,2,4]triazine-7-carboxamide trifluoroacetate] showed a pIC50 of 6.43.

The compound `O=C(Nc1cscc1Cl)c1ccc2cnc(N3C[C@H]4CC[C@@H]3CN4)nn12` (single isomer, unassigned) [Example 108, N-(4-chlorothiophen-3-yl)-2-[(1S,4S)- or (1R,4R)-2,5-diazabicyclo[2.2.2]oct-2-yl]pyrrolo[2,1-f][1,2,4]triazine-7-carboxamide trifluoroacetate] gave a negative-log IC50 (pIC50) of 6.70.

As for `Cn1cc(NC(=O)c2ccc3cnc(N4C[C@@H]5CN[C@@H](C5)C4)nn23)c(C#N)n1` (single isomer, unassigned) [Example 113, N-(3-cyano-1-methyl-1H-pyrazol-4-yl)-2-[(1S,5S)- or (1R,5R)-3,6-diazabicyclo[3.2.1]oct-3-yl]pyrrolo[2,1-f][1,2,4]triazine-7-carboxamide], the pIC50 is 7.07.

`Cn1cc(NC(=O)c2ccc3cnc(N4C[C@H]5CN[C@H](C5)C4)nn23)c(C#N)n1` (single isomer, unassigned) [Example 114, N-(3-cyano-1-methyl-1H-pyrazol-4-yl)-2-[(1S,5S)- or (1R,5R)-3,6-diazabicyclo[3.2.1]oct-3-yl]pyrrolo[2,1-f][1,2,4]triazine-7-carboxamide]: the pIC50 was 6.41.

Compound `Cn1cc(NC(=O)c2ccc3cnc(N4C[C@@H]5CNC[C@H]4C5)nn23)c(C(F)(F)F)n1` (single isomer, unassigned) [Example 116, 2-[(1S,5R)- or (1R,5S)-3,6-diazabicyclo[3.2.1]oct-6-yl]-N-[1-methyl-3-(trifluoromethyl)-1H-pyrazol-4-yl]pyrrolo[2,1-f][1,2,4]triazine-7-carboxamide] gave a pIC50 of 7.35.

`Cn1cc(NC(=O)c2ccc3cnc(N4C[C@H]5CNC[C@@H]4C5)nn23)c(C(F)(F)F)n1` (single isomer, unassigned) [Example 117, 2-[(1S,5R)- or (1R,5S)-3,6-diazabicyclo[3.2.1]oct-6-yl]-N-[1-methyl-3-(trifluoromethyl)-1H-pyrazol-4-yl]pyrrolo[2,1-f][1,2,4]triazine-7-carboxamide] had a negative logarithm of the IC50 (pIC50) of 6.84.

In turn, `Cn1cc(NC(=O)c2ccc3cnc(N4C[C@@H]5CNC[C@H]4C5)nn23)c(C(F)F)n1` (single isomer, unassigned) [Example 119, 2-[(1S,5R)- or (1R,5S)-3,6-diazabicyclo[3.2.1]oct-6-yl]-N-[3-(difluoromethyl)-1-methyl-1H-pyrazol-4-yl]pyrrolo[2,1-f][1,2,4]triazine-7-carboxamide] gave a negative logarithm of the IC50 (pIC50) of 8.70.

`Cn1cc(NC(=O)c2ccc3cnc(N4C[C@H]5CNC[C@@H]4C5)nn23)c(C(F)F)n1` (single isomer, unassigned) [Example 120, 2-[(1S,5R)- or (1R,5S)-3,6-diazabicyclo[3.2.1]oct-6-yl]-N-[3-(difluoromethyl)-1-methyl-1H-pyrazol-4-yl]pyrrolo[2,1-f][1,2,4]triazine-7-carboxamide] gave a pIC50 of 7.82.

(Values after patent publication US10329295B2, “Pyrrolotriazine inhibitors of IRAK4 activity” (MERCK SHARP & DOHME CORP., priority 2015, dated 2019).)
